This test concerns the target T1, human leukocyte elastase (HLE) (Homo sapiens, UniProt P08246).
T1 sequence (P08246 30-247 limits assumed): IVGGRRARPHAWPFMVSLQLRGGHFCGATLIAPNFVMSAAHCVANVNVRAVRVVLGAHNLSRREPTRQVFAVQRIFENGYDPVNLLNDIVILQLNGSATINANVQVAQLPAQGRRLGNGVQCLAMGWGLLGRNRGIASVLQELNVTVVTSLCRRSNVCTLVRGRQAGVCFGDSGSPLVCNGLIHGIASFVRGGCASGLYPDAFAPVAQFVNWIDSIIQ
The test can be described thus: in vitro anti-elastase activity against human leukocyte elastase (HLE). It is filed as biochemical.
The term IC50 denotes the concentration that inhibits the measured activity by half. Regarding `CCC(=O)C1=C(C)C2(CC2(c2ccccc2)c2ccccc2)S(=O)(=O)[C@@H]2[C@@H](OC)C(=O)N12` (stereo partly drawn) [Compd 2, 7α-Methoxy-2-spiro (2',2'-diphenyl)cyclopropyl-3-methyl-3-cephem-4-ethylcarbonyl 1,1-dioxide], the IC50 was found to be 10.3 nM.

The compound `CCCCC(=O)C1=C(C)C2(CC2(c2ccccc2)c2ccccc2)S(=O)(=O)[C@@H]2[C@@H](OC)C(=O)N12` (stereo partly drawn) [Compd 3, 7α-Methoxy-2-spiro(2',2'-diphenyl)cyclopropyl-3-methyl-3-cephem-4-butylcarbonyl 1,1-dioxide] yielded an IC50 of 7.4 nM.

With `CC1=C(C(=O)c2ccccc2)N2C(=O)[C@H](Cl)[C@H]2S(=O)(=O)C12CC2(c1ccccc1)c1ccccc1` (stereo partly drawn) [Compd 4, 7α-chloro-2-spiro (2',2'-diphenyl)cyclopropyl-3-methyl-3-cephem-4-phenylcarbonyl 1,1-dioxide], the midpoint of inhibition, the IC50, lay at 8.9 nM.

Consider `CC1=C(C(=O)C(C)(C)C)N2C(=O)[C@H](Cl)[C@H]2S(=O)(=O)C12CC2(c1ccccc1)c1ccccc1` (stereo partly drawn) [Compd 5, 7α-Chloro-2-spiro(2',2'-diphenyl)cyclopropyl-3-methyl-3-cephem-4-t-butylcarbonyl 1,1-dioxide], for which the midpoint of inhibition, the IC50, lay at 6.3 nM.

`CO[C@H]1C(=O)N2C(C(=O)C(C)(C)C)=C(C)C3(CC3(c3ccccc3)c3ccccc3)S(=O)(=O)[C@H]12` (stereo partly drawn) [Compd 6, 7α-Methoxy-2-spiro(2',2'-diphenyl)cyclopropyl-3-methyl-3-cephem-4-t-butylcarbonyl 1,1-dioxide] registered an IC50 of 12 nM.
